Patent US12336989B2, “Transmucosal methods for treating psychiatric and neurological conditions” (INTRA-CELLULAR THERAPIES, INC., priority 2017, dated 2025)

Legend:
muscarinic receptors = details: cited from earlier work
5-HT2C receptors = biological target: T1, 5-HT2C receptors (Homo sapiens, UniProt P28335); details: cited from earlier work
T1 sequence (P28335 33-458): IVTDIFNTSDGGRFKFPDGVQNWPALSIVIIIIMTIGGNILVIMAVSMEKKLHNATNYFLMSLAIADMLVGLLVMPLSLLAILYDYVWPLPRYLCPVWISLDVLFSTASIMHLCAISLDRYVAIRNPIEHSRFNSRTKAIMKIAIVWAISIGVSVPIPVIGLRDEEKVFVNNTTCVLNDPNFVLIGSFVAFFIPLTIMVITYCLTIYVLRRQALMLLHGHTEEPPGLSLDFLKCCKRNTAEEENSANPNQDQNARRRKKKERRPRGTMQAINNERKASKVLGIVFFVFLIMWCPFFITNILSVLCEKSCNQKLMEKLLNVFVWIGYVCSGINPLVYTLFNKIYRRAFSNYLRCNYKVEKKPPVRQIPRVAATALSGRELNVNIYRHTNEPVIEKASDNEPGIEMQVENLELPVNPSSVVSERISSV

[1] = biological target: H1 histaminergic receptors (Homo sapiens, UniProt P35367); details: cited from earlier work
[2] = Example 2: pharmacokinetics of oral dosing in dogs; assay type: in vivo, beagle dogs; details: sublingual and subcutaneous dosing at 1.0 mg/kg vs oral 15 mg/kg
Method: For control, the dogs are administered empty capsules. For the Compound of Formula I, the dogs are administered normal-release oral capsules. Blood samples are obtained at 0.25 hours, 0.5 hours, 1 hour, 4 hours, 8 hour and 24 hours. […] Cmax, Tmax and area-under-the-curve (AUC, 0-24 hours) are calculated using Phoenix WinNonlin software.

Sequence of H1 histaminergic receptors (P35367 whole entry): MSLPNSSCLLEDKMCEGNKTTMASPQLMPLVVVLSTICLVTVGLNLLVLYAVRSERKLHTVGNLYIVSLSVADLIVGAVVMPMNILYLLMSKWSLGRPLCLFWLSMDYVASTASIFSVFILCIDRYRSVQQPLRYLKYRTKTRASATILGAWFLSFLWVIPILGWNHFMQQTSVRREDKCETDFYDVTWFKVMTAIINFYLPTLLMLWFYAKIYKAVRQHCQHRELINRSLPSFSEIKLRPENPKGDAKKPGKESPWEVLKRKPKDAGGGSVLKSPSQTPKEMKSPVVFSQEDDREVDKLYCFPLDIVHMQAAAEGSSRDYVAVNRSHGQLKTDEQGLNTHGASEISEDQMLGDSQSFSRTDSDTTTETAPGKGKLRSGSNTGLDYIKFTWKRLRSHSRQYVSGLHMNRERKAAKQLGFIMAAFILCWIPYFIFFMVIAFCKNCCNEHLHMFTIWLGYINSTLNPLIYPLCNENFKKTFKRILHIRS

24-hour AUC, times higher than oral dosing at 15 mg/kg [2]: about three
Compound: CN1CCN2c3c(cccc31)[C@@H]1CN(CCCC(=O)c3ccc(F)cc3)CC[C@@H]12 [Compound of Formula I, 1-(4-fluoro-phenyl)-4-((6bR,10aS)-3-methyl-2,3,6b,9,10,10a-hexahydro-1H,7H-pyrido[3′,4′:4,5]pyrrolo[1,2,3-de]quinoxalin-8-yl)-butan-1-one]
binding to muscarinic receptors (muscarinic receptors): negligible binding | binding to 5-HT2C receptors (5-HT2C receptors): negligible binding | binding to H1 histaminergic receptors [1]: negligible binding
